Assay results from patent publication US12540139B2, “Imidazopiperazine inhibitors of transcription activating proteins” (Board of Regents, The University of Texas System, priority 2020, dated 2026).
Values belong to the molecule of their own block, whether it stands above or below them.

How the values were obtained:
[1] = In vivo pharmacokinetics after a single dose, rat; conditions: male, plasma, Sprague-Dawley rat
Description: (§1) IV (intravenous) doses were formulated in 20% DMSO+60% PEG400+20% water. PO (per os) doses were formulated in 0.5% methylcellulose in water.
Rat: Male rats (SD strain, purchased from Shanghai JH Laboratory Animal Co. LTD) weighing 200-300 g were used for studies. Animals were fasted overnight and fed 4 h postdose. Water was available ad libitum for all animals. Test article was dosed via dorsal foot vein (IV doses) or oral gavage (PO doses). Blood samples were collected via tail vein from all animals at predose and at 0.083, 0.25, 0.5, 1, 2, 4, 8, and 24 h postdose into tubes containing the anticoagulant K2EDTA. Plasma was separated from the blood by centrifugation at 4° C. and stored at −70° C. until analysis. Test article concentrations in plasma were quantified using a liquid chromatography with tandem mass spectrometry (LC-MS/MS) method.

[2] = Metabolic stability in monkey liver microsomes; type: in vitro ADME; conditions: pH 7.4, read-out: Liver microsomal clearance (t1/2), Monkey
Description: (§2) Microsomal stability. Microsomal stability assays were conducted on a Beckmann Biomek FXp laboratory automation system. The liver microsomal incubation mixture consisted of liver microsomes (0.5 mg microsomal protein/mL), the Compound (1 μM), MgCl2 (3 mM), and EDTA (1 mM) in potassium phosphate buffer (100 mM, pH 7.4). Midazolam and Ketanserin were used as the assay control substrates. The reaction was initiated with the addition of an NADPH regeneration solution (1.3 mM NADPH) and maintained at 37° C. with shaking. At five time points ranging from 0 to 45 min, aliquots (50 μL) were removed and quenched with acetonitrile (100 μL) containing an internal standard (imipramine). After vortex and centrifugation, samples were analyzed by LC-MS/MS. Calculation of the in vitro half-lives and clearance followed literature guidelines.

[3] = Metabolic stability in mouse liver microsomes; type: in vitro ADME; conditions: pH 7.4; CD-1 mouse liver microsomes 0.5 mg/mL, NADPH, 45 minutes, 37° C.; read-out: Half-life in liver microsomes (t1/2), Mouse
Description: as §2

[4] = target: T1, BRD4 (49-170) bromodomain (Homo sapiens, UniProt O60885); experiment: BRD4 AlphaScreen assay; type: binding; conditions: biotin-H4 (1-21) Ac-K5/8/12/16 peptide
T1 construct: The GST tagged bromodomains of CBP (1081-1197) and BRD4 (49-170) were obtained from BPS Bioscience; purchased BPS Bioscience
Description: (§3) Specific binding of the CBP or BRD4 bromodomain to the acetylated peptide derived from the H4 histone substrate (tetra acetylated H4 (1-21) Ac-K5/8/12/16) was measured in absence or presence of inhibitors. The GST tagged bromodomains of CBP (1081-1197) and BRD4 (49-170) were obtained from BPS Bioscience and binding to the biotinylated H4 (1-21) Ac-K5/8/12/16 (AnaSpec. 64989) was assessed via AlphaScreen technology (Perkin Elmer).
(§4) The binding of 2.5 nM of BRD4 (49-170) to 10 nM biotin-H4 (1-21) Ac-K5/8/12/16 (AnaSpec. 64989) was assessed following the same procedure described for the CBP assay. The standard dose response curves were fitted by Genedata Screener software using the variable-slope model: Signal=Signalnegative control+(SignalDMSO control−Signalnegative control)/(1+(IC50/Dose)^Hill slope).
(§5) Only Signal and Dose in the equation were treated as known values.

[5] = Metabolic stability in human liver microsomes; type: in vitro ADME; conditions: pH 7.4; human liver microsomes 0.5 mg/mL, NADPH, 45 minutes, 37° C.; read-out: Half-life in liver microsomes (t1/2), Human
Description: as §2

[6] = Metabolic stability in dog liver microsomes; type: in vitro ADME; conditions: pH 7.4, read-out: Liver microsomal clearance (t1/2), Dog
Description: as §2

DOHH2 cells = experiment: DOHH2 proliferation assay (CellTiter-Glo, day 7); type: cell-based; conditions: Homo sapiens, DOHH-2, 168 h; viability by CellTiter-Glo on day 7
Description: On day 1, 1000 DOHH2 cells were seeded to a 384-well TC plate (PerkinElmer #6007680) in 40 μL RPMI 1640 media, followed by the addition of CBP inhibitors except for column 13 where 3.3 μM staurosporine was added as negative control. DMSO was 0.1% in all the wells. The cells were lysed in and counted for viability by 40 μL CellTiter-Glo (Promega #G9243) on day 7. The luminescent signal was quantified by Envision Multilabel plate reader and the standard dose response curves were fitted by Genedata Screener software using the variable-slope model: Signal=Signalnegative control+(SignalDMSO control−Signalnegative control)/(1+(IC50/Dose)^Hill slope).
as §5

[7] = In vivo pharmacokinetics after a single dose, mouse; conditions: female CD-1 mice, single dose 0.2 or 0.3 mg/kg IV; for Vd: read-out: Vss
Description: as §1
Mouse: Female mice (CD1 strain, purchased from Shanghai JH Laboratory Animal Co. LTD) weighing 20-30 g were used for studies. Food and water were available to all animals ad libitum. The test article was dosed via tail vein (IV doses) or oral gavage (PO doses), respectively. Blood samples were collected from all animals at predose and at 0.083, 0.25, 0.5, 1, 2, 4, 8, and 24 h postdose into tubes containing the anticoagulant K2EDTA (3 animals per time point with 3 time points collected per animal). Plasma was separated from the blood by centrifugation at 4° C. and stored at −70° C. until analysis. Test article concentrations in plasma were quantified using a liquid chromatography with tandem mass spectrometry (LC-MS/MS) method.

[8] = In vivo pharmacokinetics after a single dose, monkey; conditions: male, plasma, Cynomolgus monkey
Description: as §1
(§6) Monkey: Male Cynomolgus monkeys (purchased from Hainan Jingang Biotech. Co., Ltd) weighing 3-5 kg were used for studies. Animals were fasted overnight and fed 4 h postdose. Test article was administered to monkeys via the cephalic vein (IV doses) or nasal gavage (PO doses). Blood samples were collected via the saphenous vein or cephalic vein from all animals at predose and 0.083, 0.25, 0.5, 1, 2, 4, 8, and 24 h postdose into tubes containing the anticoagulant K2EDTA. Plasma was separated from the blood by centrifugation at 4° C. and stored at −70° C. until analysis. Test article concentrations in plasma were quantified using a liquid chromatography with tandem mass spectrometry (LC-MS/MS) method.

[9] = target: T2, GST-CBP (1081-1197) bromodomain (Homo sapiens, UniProt Q92793); experiment: CBP AlphaScreen assay; type: binding; conditions: biotin-H4 (1-21) Ac-K5/8/12/16 peptide
T2 construct: The GST tagged bromodomains of CBP (1081-1197) and BRD4 (49-170) were obtained from BPS Bioscience; purchased BPS Bioscience
Description: as §3
5 nM GST-CBP (1081-1197) and 20 nM biotin-H4 (1-21) Ac-K5/8/12/16 (AnaSpec. 64989) were incubated with varying concentrations of CBP inhibitors in 15 μL of buffer containing 50 mM HEPES 7.5, […], 1 mM TCEP, and 0.003% Tween-20. After 30 minutes incubation at room temperature, 15 μL of detection buffer (BPS Bio. 33006) containing 7 μg/mL of Glutathione AlphaLisa acceptor beads (Perkin Elmer AL109) and 14 μg/mL of Streptavidin donor beads (Perkin Elmer 676002) was then added to the previous mixture. The reaction was incubated for an additional 2 hours at room temperature, and the AlphaScreen signal was quantified using the Envision Multilabel plate reader. As negative control, GST-CBP (1081-1197) was incubated with the non-acetylated biotin-H4 (1-21) peptide (AnaSpec. 62555) and in presence of 0.25% of final DMSO concentration.
as §4, §5

[10] = In vivo pharmacokinetics after a single dose, dog; conditions: male, plasma, Beagle dog
Description: as §1
as §6, with “Dog:” for “Monkey:”, “Beagle dogs” for “Cynomolgus monkeys”, “Beijing Marshall Biotechnology” for “Hainan Jingang Biotech.”, “7-10” for “3-5”, “dogs” for “monkeys”, “oral” for “nasal”

[11] = Metabolic stability in rat liver microsomes; type: in vitro ADME; conditions: pH 7.4; Sprague Dawley rat liver microsomes 0.5 mg/mL, NADPH, 45 minutes, 37° C.; read-out: Half-life in liver microsomes (t1/2), Rat
Description: as §2

[12] = mouse, plasma, read-out: Clearance (converted)

T2 sequence (Q92793 1081-1197): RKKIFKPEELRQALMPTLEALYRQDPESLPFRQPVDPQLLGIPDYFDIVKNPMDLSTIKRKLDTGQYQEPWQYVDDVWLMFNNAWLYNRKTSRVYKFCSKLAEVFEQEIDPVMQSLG

clearance ([1]; 1 mg/kg IV): 8.92 mL/min/kg | half-life ([1]; 1 mg/kg IV): 2.99 h | Vd ([1]; 1 mg/kg IV, read-out: Vss): 0.908 L/kg | AUC(0-t) ([1]; 3 mg/kg PO): 2.63 µM·h | Cmax ([1]; 3 mg/kg PO): 1350 nM | bioavailability ([1]; 3 mg/kg PO): 25.2% | half-life at 1 μM [2]: 0.383 h | half-life at 1 μM [3]: 69.8 h | IC50 [4]: 4790 nM | half-life at 1 μM [5]: 3.97 h | half-life at 1 μM [6]: 1.05 h | clearance [7]: dramatic decrease | t1/2 [7]: increase | half-life ([7]; mouse, plasma): 4.47 h | clearance [7, 12]: 3.28 mL/min/kg | Vd ([7]; mouse, plasma): 0.342 L/kg | clearance ([8]; 1 mg/kg IV): 12.3 mL/min/kg | half-life ([8]; 1 mg/kg IV): 1.65 h | Vd ([8]; 1 mg/kg IV, read-out: Vss): 1.06 L/kg | AUC(0-t) ([8]; 3 mg/kg PO): 2.49 µM·h | Cmax ([8]; 3 mg/kg PO): 773 nM | bioavailability ([8]; 3 mg/kg PO): 28.2% | IC50 [9]: 3 nM | clearance ([10]; 1 mg/kg IV): 6.72 mL/min/kg | half-life ([10]; 1 mg/kg IV): 3.42 h | Vd ([10]; 1 mg/kg IV, read-out: Vss): 1.57 L/kg | AUC(0-t) ([10]; 3 mg/kg PO): 10.8 µM·h | Cmax ([10]; 3 mg/kg PO): 1870 nM | bioavailability ([10]; 3 mg/kg PO): 78.9% | half-life at 1 μM [11]: 3.22 h
Structure (SMILES): CNC(=O)N1CCn2c(C3CCOCC3)nc(-c3cccc4nc(-c5cnc(C)s5)c(C(F)F)cc34)c2C1 [Compound 1, 1-(3-(difluoromethyl)-2-(2-methylthiazol-5-yl)quinolin-5-yl)-N-methyl-3-(tetrahydro-2H-pyran-4-yl)-5,6-dihydroimidazo[1,5-a]pyrazine-7(8H)-carboxamide]
IC50 (DOHH2 cells): 29 nM

IC50 [4]: 1930 nM | IC50 [9]: 2 nM
Structure (SMILES): CC(=O)N1CCn2c(C3CCOCC3)nc(-c3cccc4nc(-c5cnc(C)s5)c(C(F)F)cc34)c2C1 [Compound 2]
IC50 (DOHH2 cells): 215 nM

IC50 [4]: 7430 nM | IC50 [9]: 17 nM
Structure (SMILES): CC(=O)N1CCn2c(C3CCOCC3)nc(-c3cccc4nc(-c5ccc(C)nc5)c(C(F)F)cc34)c2C1 [Compound 3, 1-(1-(3-(Difluoromethyl)-2-(6-methylpyridin-3-yl)quinolin-5-yl)-3-(tetrahydro-2H-pyran-4-yl)-5,6-dihydroimidazo[1,5-a]pyrazin-7(8H)-yl)ethan-1-one]
IC50 (DOHH2 cells): 198 nM

half-life at 1 μM [3]: 86.7 h | half-life at 1 μM [5]: 4.35 h | half-life ([7]; mouse, plasma): 0.318 h | clearance [7, 12]: 33.5 mL/min/kg | Vd ([7]; mouse, plasma): 0.822 L/kg | half-life at 1 μM [11]: 8.45 h
Structure (SMILES): CNC(=O)N1CCn2c(C3CCOCC3)nc(-c3cccc4cc(-c5cnc(C)s5)ncc34)c2C1 [Compound 4, reference compound]
IC50 (DOHH2 cells): 134 nM
